According to patent US20040224939A1, “Antibacterial agents” (priority 2003, published 2004):
Values after ≈ are worked out from the molar mass of the structure shown.

Tests used:
S. aureus UC-76 = assay: Antibacterial assay (Test A), standard microtitration MIC, Gram positive; assay type: cell-based; settings: Gram Positive Bacteria, strain UC-76; for MIC: Staphylococcus aureus, UC76, read-out: Minimum Inhibitory Concentrations, S. aureus UC-76
Experimental: (§1) Test A—Antibacterial Assays
(§2) The compounds of the present invention were tested against an assortment of Gram-negative and Gram-positive organisms using standard microtitration techniques (Cohen et. al., Antimicrob., 1985;28:766; Heifetz, et. al., Antimicrob., 1974;6:124).

E. faecalis MGH-2 = assay: as above; assay type: cell-based; settings: Gram Positive Bacteria, strain MGH-2; for MIC: Enterococcus faecalis, MGH2, read-out: Minimum Inhibitory Concentrations, E. faecalis MGH-2
Experimental: as §1, §2

S pyogenes C203 = assay: as above; assay type: cell-based; settings: Gram Positive Bacteria, strain C203; for MIC: read-out: Minimum Inhibitory Concentrations, S pyogenes C203
Experimental: as §1, §2

H. influenzae H13542 = assay: Antibacterial assay (Test A), standard microtitration MIC, Gram negative; assay type: cell-based; settings: Gram Negative Bacteria, strain H13542; for MIC: Haemophilus influenzae, read-out: Minimum Inhibitory Concentrations, H. influenzae H13542
Experimental: as §1, §2

E. coli Tol C = assay: as above; assay type: cell-based; settings: for MIC: Escherichia coli, read-out: Minimum Inhibitory Concentrations, E. coli Tol C
Experimental: as §1, §2

M. catarrhalis BC3534 = assay: as above; assay type: cell-based; settings: Gram Negative Bacteria, strain BC3534; for MIC: Moraxella catarrhalis, read-out: Minimum Inhibitory Concentrations, M. catarrhalis BC3534
Experimental: as §1, §2

[1] = tested on: E. coli transcription and translation (TnT), E. coli S30 fraction; assay: E. coli transcription and translation (TnT) assay, cell free, luciferase luminescence;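 also: printed under a heading of minimum inhibitory concentration in µg/mL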; assay type: biochemical; settings: cell free E. coli S30, firefly luciferase plasmid pBESTluc, 20 minutes at room temperature

Row | Molecule | MIC (S. aureus UC-76) [mg/L] | MIC (E. faecalis MGH-2) [mg/L] | MIC (S pyogenes C203) [mg/L] | MIC (H. influenzae H13542) [mg/L] | MIC (E. coli Tol C) [mg/L] | MIC (M. catarrhalis BC3534) [mg/L] | Inhibitory concentration in E. coli cell-free transcription/translation assay [1] [µg/mL] | Minimum Inhibitory Concentrations, S. aureus UC-76 (S. aureus UC-76) [µg/mL] | Minimum Inhibitory Concentrations, E. faecalis MGH-2 (E. faecalis MGH-2) [µg/mL] | Minimum Inhibitory Concentrations, S pyogenes C203 (S pyogenes C203) [µg/mL] | Minimum Inhibitory Concentrations, H. influenzae H13542 (H. influenzae H13542) [µg/mL] | Minimum Inhibitory Concentrations, E. coli Tol C (E. coli Tol C; Gram Negative Bacteria, strain Tol C) [µg/mL] | Minimum Inhibitory Concentrations, M. catarrhalis BC3534 (M. catarrhalis BC3534) [µg/mL]
1 | CC(=O)NCC1CN(c2ccc3c(c2)CC(=O)CCC3)C(=O)O1 (stereo not shown) [Example 5, N-[2-Oxo-3-(8-oxo-6,7,8,9-tetrahydro-5H-benzocyclohepten-2-yl)-oxazolidin-5-ylmethyl]-acetamide] | 8 (≈ 25.3 µM) | 16 (≈ 50.6 µM) | 8 (≈ 25.3 µM) | 64 (≈ 202 µM) | > 64 | 64 (≈ 202 µM) | 2.3 |  |  |  |  |  | 
2 | CC(=O)NCC1CN(c2ccc3c(c2)CCC(=O)CC3)C(=O)O1 (stereo not shown) [Example 4, N-[2-Oxo-3-(7-oxo-6,7,8,9-tetrahydro-5H-benzocyclohepten-2-yl)-oxazolidin-5-ylmethyl]-acetamide] | 4 (≈ 12.6 µM) | 8 (≈ 25.3 µM) | 4 (≈ 12.6 µM) | 64 (≈ 202 µM) | > 64 | 32 (≈ 101 µM) | 8.2 |  |  |  |  |  | 
3 | N-[2-Oxo-3-(2,3,4,5-tetrahydro-1H-benzo [c] azepin-7-yl)-oxazolidin-5-ylmethyl]-acetamide and N-[2-Oxo-3-(2,3,4,5-tetrahydro-1H-benzo[d]azepin-7-yl)-oxazolidin-5-ylmethyl]-acetamide [Example 15] |  |  |  |  |  |  | 11 | 64 | 64 | 64 | >64 | >64 | >64
4 | CC(=O)NC[C@H]1CN(c2ccc3c(c2)CCN(C(=O)Cc2cccs2)CC3)C(=O)O1 | 0.25 (≈ 0.585 µM) | 0.25 (≈ 0.585 µM) | 0.125 (≈ 0.292 µM) | > 64 | > 64 | 16 (≈ 37.4 µM) | 2.3 |  |  |  |  |  | 
5 | CC(=O)NC[C@H]1CN(c2ccc3c(c2)CCC/C(=C\c2ccc(F)cc2)C3=O)C(=O)O1 [drawing 72] |  |  |  | 2 (≈ 4.73 µM) | > 64 | 1 (≈ 2.37 µM) | 1.4 |  |  |  |  |  | 
6 | CC(=O)NC[C@H]1CN(c2ccc3c(c2)C=CCCC3)C(=O)O1 | 4 (≈ 13.3 µM) | 4 (≈ 13.3 µM) | 2 (≈ 6.66 µM) | > 64 | > 64 | 32 (≈ 107 µM) |  |  |  |  |  |  | 
7 | CC(=O)NCC1CN(c2ccc3c(c2)CCCC(=O)C3)C(=O)O1 (stereo not shown) [Example 7, N-[2-Oxo-3-(6-oxo-6,7,8,9-tetrahydro-5H-benzocyclohepten-2-yl)-oxazolidin-5-ylmethyl]-acetamide] | 4 (≈ 12.6 µM) | 4 (≈ 12.6 µM) | 2 (≈ 6.32 µM) | 32 (≈ 101 µM) | > 64 | 32 (≈ 101 µM) | 12 |  |  |  |  |  | 
8 | CC(=O)NCC1CN(c2ccc3c(c2)C=CCCC3)C(=O)O1 (stereo not shown) [Example 6, N-[3-(6,7-dihydro-5H-benzocyclohepten-2-yl)-2-oxo-oxazolidin-5-ylmethyl]acetamide] | 4 (≈ 13.3 µM) | 4 (≈ 13.3 µM) | 2 (≈ 6.66 µM) | > 64 | > 64 | 32 (≈ 107 µM) | 15 |  |  |  |  |  | 
9 | CC(=O)NC[C@H]1CN(c2ccc3c(c2)CCCC(Cc2ccsc2)C3=O)C(=O)O1 (stereo partly shown) | 0.25 (≈ 0.606 µM) | 0.5 (≈ 1.21 µM) | 0.25 (≈ 0.606 µM) | 2 (≈ 4.85 µM) | > 64 | 1 (≈ 2.42 µM) | 0.84 |  |  |  |  |  | 
10 | CC(=O)NC[C@H]1CN(c2ccc3c(c2)CCC/C(=C\c2ccncc2)C3=O)C(=O)O1 [drawing 73] |  |  |  | 16 (≈ 39.5 µM) | > 64 | 8 (≈ 19.7 µM) | 2.7 |  |  |  |  |  | 
11 | CC(=O)NC[C@H]1CN(c2ccc3c(c2)CCCCC3)C(=O)O1 [drawing 69] | 2 (≈ 6.61 µM) | 4 (≈ 13.2 µM) | 2 (≈ 6.61 µM) | > 64 | > 64 | 16 (≈ 52.9 µM) |  |  |  |  |  |  | 
12 | CC(=O)NCC1CN(c2ccc3c(c2)CCCCN3)C(=O)O1 (stereo not shown) [Example 14, N-[2-Oxo-3-(2,3,4,5-tetrahydro-1H-benzo[b]azepin-7-yl)-oxazolidin-5-ylmethyl]-acetamide] | 32 (≈ 105 µM) | 64 (≈ 211 µM) | 16 (≈ 52.7 µM) | 64 (≈ 211 µM) | > 64 | > 64 |  |  |  |  |  |  | 
13 | CC(=O)NCC1CN(c2ccc3c(c2)OCCCC3=O)C(=O)O1 (stereo not shown) [Example 12, N-[2-Oxo-3-(5-oxo-2,3,4,5-tetrahydro-benzo[b]oxepin-8-yl)-oxazolidin-5-ylmethyl]-acetamide] | 8 (≈ 25.1 µM) | 4 (≈ 12.6 µM) | 2 (≈ 6.28 µM) | 32 (≈ 101 µM) | > 64 | 16 (≈ 50.3 µM) | 1.1 |  |  |  |  |  | 
14 | CC(=O)NC[C@H]1CN(c2ccc3c(c2)CCC/C(=C\c2ccncc2)C3=O)C(=O)O1 [drawing 72] | 1 (≈ 2.47 µM) | 1 (≈ 2.47 µM) | 1 (≈ 2.47 µM) |  |  |  |  |  |  |  |  |  | 
15 | COC(=O)C1CCCc2cc(N3C[C@H](CNC(C)=O)OC3=O)ccc2C1=O (stereo partly shown) | 4 (≈ 10.7 µM) | 2 (≈ 5.34 µM) | 4 (≈ 10.7 µM) | 32 (≈ 85.5 µM) | > 64 | 16 (≈ 42.7 µM) | 4.7 |  |  |  |  |  | 
16 | CC(=O)NC[C@H]1CN(c2ccc3c(c2)CCC/C(=C\c2ccc(F)cc2)C3=O)C(=O)O1 [drawing 73] | 0.5 (≈ 1.18 µM) | 0.5 (≈ 1.18 µM) | 0.5 (≈ 1.18 µM) |  |  |  |  |  |  |  |  |  | 
17 | CC(=O)NC[C@H]1CN(c2ccc3c(c2)CCCCC3)C(=O)O1 [drawing 70] |  |  |  |  |  |  | 6.6 |  |  |  |  |  | 
18 | CC(=O)NCC1CN(c2ccc3c(c2)CCCCC3=O)C(=O)O1 (stereo not shown) [Example 2, N-[2-Oxo-3-(5-oxo-6,7,8,9-tetrahydro-5H-benzocyclohepten-2-yl)-oxazolidin-5-ylmethyl]-acetamide] | > 64 | > 64 | > 64 | 8 (≈ 25.3 µM) | > 64 | 4 (≈ 12.6 µM) | 3.9 |  |  |  |  |  | 
